Tests used:
[1] = HPLC purity of bendamustine HCl after sterilization; type: physicochemical
Protocol: (§1) 100 mg each of bendamustine HCl was weighed into a 20 mL tubing vial, a 20 mL amber vial, and a 20 mL clear vial. Rubber stoppers were inserted and aluminum caps crimped on. The vials were passed through a gamma irradiation line and received doses in the range of 29.3 kGy to about 32.3 kGy. Purity and sterility testing was then performed.
as §1, with “an electron beam” for “a gamma”, “a dose” for “doses in the range”, “of” for “of 29.3 kGy to”, “30” for “32.3”
To each 10 mg of bendamustine HCl, sterilized according to the methods described above, was added 10 mL N-methyl-2-pyrrolidone (NMP). A reference standard of bendamustine HCl was prepared in NMP having a concentration of 1 mg/mL. HPLC was performed according to conventional methods.

[2] = heating; background statement; cited from earlier work

Cl.Cn1c(CCCC(=O)O)nc2cc(N(CCCl)CCCl)ccc21 [bendamustine HCl, Bendamustine hydrochloride]
HPLC purity (% area) ([1]; after E-beam irradiation, about 30 kGy, 100 mg solid in amber vial): 99.70 % area
HPLC purity (% area) ([1]; after E-beam irradiation, about 30 kGy, 100 mg solid in clear vial): 99.70 % area
HPLC purity (% area) ([1]; after gamma irradiation, 29.3 kGy to about 32.3 kGy, 100 mg solid in amber vial): 99.70 % area
HPLC purity (% area) ([1]; after gamma irradiation, 29.3 kGy to about 32.3 kGy, 100 mg solid in clear vial): 99.64 % area
Temperature at which the solid chars when heated [2]: 160 °C
